The nature of series [1]: 91-day once-daily latanoprost ointment, plasma PK after last dose in minipigs. The class given is in vivo. The conditions noted are these: both sexes, topical or ocular, 0.5 % w/w; minipig, topical (percutaneous) latanoprost; first-order fit of 24, 48, 72 h plasma values; read-out: terminal elimination half-life. As for the experimental part: A pharmacokinetic (PK) experiment was conducted on male and female minipigs (n=6 per sex). Ointment comprising latanoprost 0.5% w/w in a vehicle comprising petroleum jelly and isopropyl myristate was applied once daily for 91 days to skin over 10% of body surface area. After the last topical application, plasma PK was assessed by sampling all animals through 24 hours, and in 2 animals per sex over for an additional 48 hours.
(See Sjoquist B et al., The pharmacokinetics of a new antiglaucoma drug, latanoprost, in the rabbit, Drug Metabol […] 1998; 26:745-754; and Sjoquist B and Stjernschantz J, Ocular and systemic pharmacokinetics of latanoprost in humans, Surv Ophthalmol 2002; 47:S6-S12).

For series [2] the following is noted: cited from earlier work.
The subject of a further series is subcutaneous fat. Kind of series: 42-day once-daily topical latanoprost trial in minipigs: reduction of subcutaneous fat (microscopy, ImageJ). The class given is in vivo. The conditions noted are these: minipig, 42 days. Here is the method: A randomized, placebo-controlled trial of topical latanoprost was conducted on male and female minipigs. Animals were randomized to no treatment, placebo (vehicle only), latanoprost 0.16%, or latanoprost 0.8% in an emulsion consisting essentially of water, poloxamer, lecithin, and isopropyl palmitate. The treatment was applied once daily to a 400 cm^2 area on the dorsum, with a semi-occlusive dressing. Treatment continued for 42 days.
Animals received a full panel of local and systemic safety assessments over the course of the study. Plasma toxicokinetics (TK) were assessed at various timepoints. After 42 days of treatment, animals were sacrificed. Samples of skin and subcutaneous fat were dissected from the treatment area in a controlled fashion and submitted for microscopic examination by a veterinary pathologist who was not informed of the compound tested or its therapeutic purpose.
Reduction of subcutaneous fat thickness was quantified using ImageJ software. In the high-dose group the mean reduction was 2.2 cubic centimeters of fat per 100 cm^2 of treated skin.

Another series deals with excess submental fat. Description: Randomized, double-blind, placebo-controlled trial of topical latanoprost on the submental area. The class given is in vivo, human. Particulars: adults, submental skin 50 cm^2, applied at bedtime, washed after 8-10 hours, 42 days. As for the experimental part: A randomized, double-blind, placebo-controlled trial of topical latanoprost applied to the submental area was conducted with adult men and women with excess submental fat. In one cohort, participants were randomized to receive latanoprost in an ethanol-based composition, or a matching placebo composition. In another cohort, participants were randomized to receive latanoprost in a petroleum jelly-based composition, or a matching placebo composition. The composition was applied at bedtime to a controlled 50 cm^2 area of submental skin. Participants were instructed to wash the 50 cm^2 area after 8-10 hours, so as to remove the composition. Treatment continued for 42 days.

Series [3] relates to lower lid steatoblepharon. Description: Randomized, double-masked, placebo-controlled trial of latanoprost ointment on lower eyelids (steatoblepharon). Type of series: in vivo, human. Particulars: adults, lower eyelids once nightly, washed after 8-10 hours, 10 weeks. As for the experimental part: A randomized, double-masked, placebo-controlled trial of latanoprost ointment applied to lower eyelids was conducted with adult men and women with lower lid steatoblepharon, i.e., eye bags. Participants received a kit comprising a tube of latanoprost ointment and instructions to apply the topical composition to the lower eyelids once nightly at bedtime. Participants were instructed to wash the lower eyelids 8-10 hours after ointment application, so as to remove the ointment or residue thereof. Treatment continued for 10 weeks.

For series [4] the following is noted: humans; cited from earlier work.

The values that follow come from US10188661B2, “Topical dosage regimen” (Topokine Therapeutics, Inc., priority 2014, dated 2019).

The structures appear in SMILES notation. Read-outs that look alike come from different tables or passages of the source.

Consider `O=C(O)CCC/C=C\C[C@@H]1[C@@H](CC[C@@H](O)CCc2ccccc2)[C@H](O)C[C@@H]1O` [latanoprost free acid], for which the half-life is 1080 to 1440 min in series [1], 9 to 17 min in series [2] (after intravenous administration), 17 to 85 min in series [2] (after ocular administration) and 9 to 85 min in series [2] (latanoprost administered intravenously or ophthalmically).
Consider `CC(C)OC(=O)CCC/C=C\C[C@@H]1[C@@H](CC[C@@H](O)CCc2ccccc2)[C@H](O)C[C@@H]1O` [latanoprost], for which the “subcutaneous fat on microscopic examination” value in the series with subcutaneous fat (0.16% and 0.8% once daily) was “Dose-dependent depletion of subcutaneous fat”. Further, the “mean reduction of subcutaneous fat” value in the series with subcutaneous fat (high-dose group) is 2.2 cubic centimeters of fat per 100 cm^2 of treated skin. Also, the tolerability entry (in the series on excess submental fat; in series [3]) was “well tolerated” throughout. In addition, in series [4], the half-life in plasma result is “about 17 minutes”.

What is called half-life is the time needed for the level to fall by half in the phase considered.
